This is an account of results in US12202835B2, “Substituted aromatic ring-linked dioxinoquinazolines and dioxinoquinolines as kinase inhibitors” (BEIJING SCITECH-MQ PHARMACEUTICALS LIMITED, priority 2018, dated 2025).

One assay addresses c-MET kinase (Homo sapiens (Human), UniProt P08581). As to the kind of experiment: Assay of small molecular compounds for inhibiting the activity of c-MET kinase (LANCE TR-FRET). It counts as biochemical. The settings on record: read-out: CMET IC50. The procedure, abridged: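 Eleven final concentrations from 2500 nM down to 0.042 nM, in 4% DMSO, were tested against human c-MET (2× stock 2 nM), with compound and enzyme premixed for 5 min. The phosphorylation reaction used 4× stock of 400 nM ULight-JAK-1 peptide and 40 μM ATP for 60 min at room temperature, then stop and detection steps. TR-FRET percent inhibition against positive and negative controls gave the IC50.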
A general note: TR-FRET usually uses a lanthanide donor and a delayed reading to cut background.

The next assay deals with MER kinase (Homo sapiens (Human), UniProt Q12866). In words: Assay of small molecular compounds for inhibiting the activity of MER kinase (LANCE TR-FRET). It counts as biochemical. The procedure, abridged: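 LANCE TR-FRET readout of ULight-poly GT phosphorylation by MER kinase; compound final range 0.042-2500 nM, 3-fold steps, 5 min enzyme preincubation. Reaction 60 min at room temperature in the dark with substrate/ATP (4× at 200 nM/20 μM), 1% DMSO, then stopped and developed 60 min; IC50 by curve fit.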
Sequence of MER kinase (Q12866 21-999): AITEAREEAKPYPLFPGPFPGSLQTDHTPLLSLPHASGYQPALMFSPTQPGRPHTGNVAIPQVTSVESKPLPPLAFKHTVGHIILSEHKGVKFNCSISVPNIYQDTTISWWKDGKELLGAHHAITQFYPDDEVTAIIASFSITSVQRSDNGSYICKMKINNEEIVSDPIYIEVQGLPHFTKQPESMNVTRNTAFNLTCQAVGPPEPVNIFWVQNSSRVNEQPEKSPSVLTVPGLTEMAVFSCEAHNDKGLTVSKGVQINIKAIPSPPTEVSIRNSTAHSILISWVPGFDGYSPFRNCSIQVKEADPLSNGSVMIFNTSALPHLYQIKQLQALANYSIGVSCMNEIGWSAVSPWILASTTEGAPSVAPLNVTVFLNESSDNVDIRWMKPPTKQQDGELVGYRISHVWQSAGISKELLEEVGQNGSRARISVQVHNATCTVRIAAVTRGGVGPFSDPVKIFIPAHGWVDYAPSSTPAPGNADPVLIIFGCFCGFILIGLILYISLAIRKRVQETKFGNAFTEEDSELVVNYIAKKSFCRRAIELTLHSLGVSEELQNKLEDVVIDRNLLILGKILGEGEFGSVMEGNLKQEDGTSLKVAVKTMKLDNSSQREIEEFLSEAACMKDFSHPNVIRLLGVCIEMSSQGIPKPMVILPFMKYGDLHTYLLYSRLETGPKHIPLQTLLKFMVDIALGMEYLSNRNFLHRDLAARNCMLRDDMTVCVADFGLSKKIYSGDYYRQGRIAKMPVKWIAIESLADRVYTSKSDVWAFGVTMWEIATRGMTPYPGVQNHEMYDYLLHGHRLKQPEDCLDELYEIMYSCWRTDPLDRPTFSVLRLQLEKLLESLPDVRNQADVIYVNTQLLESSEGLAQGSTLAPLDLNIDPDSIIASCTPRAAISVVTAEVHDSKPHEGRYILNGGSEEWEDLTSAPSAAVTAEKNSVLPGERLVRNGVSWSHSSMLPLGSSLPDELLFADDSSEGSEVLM

Another assay concerns Ba/F3 LMNA-NTRK1 cells. In words: Assay for inhibiting the proliferation of Ba/F3 LMNA-NTRK1 cells (CCK-8). As to conditions: Mus musculus, BaF3. It counts as cell-based. The procedure, abridged: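 Viability was read as absorbance at 450 nm following 1–2 h CCK-8 incubation at 37 °C, relative to control and blank wells.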

As usually defined, the IC50 is the concentration that inhibits the measured activity by half.

Sequence of c-MET kinase (P08581 25-1390): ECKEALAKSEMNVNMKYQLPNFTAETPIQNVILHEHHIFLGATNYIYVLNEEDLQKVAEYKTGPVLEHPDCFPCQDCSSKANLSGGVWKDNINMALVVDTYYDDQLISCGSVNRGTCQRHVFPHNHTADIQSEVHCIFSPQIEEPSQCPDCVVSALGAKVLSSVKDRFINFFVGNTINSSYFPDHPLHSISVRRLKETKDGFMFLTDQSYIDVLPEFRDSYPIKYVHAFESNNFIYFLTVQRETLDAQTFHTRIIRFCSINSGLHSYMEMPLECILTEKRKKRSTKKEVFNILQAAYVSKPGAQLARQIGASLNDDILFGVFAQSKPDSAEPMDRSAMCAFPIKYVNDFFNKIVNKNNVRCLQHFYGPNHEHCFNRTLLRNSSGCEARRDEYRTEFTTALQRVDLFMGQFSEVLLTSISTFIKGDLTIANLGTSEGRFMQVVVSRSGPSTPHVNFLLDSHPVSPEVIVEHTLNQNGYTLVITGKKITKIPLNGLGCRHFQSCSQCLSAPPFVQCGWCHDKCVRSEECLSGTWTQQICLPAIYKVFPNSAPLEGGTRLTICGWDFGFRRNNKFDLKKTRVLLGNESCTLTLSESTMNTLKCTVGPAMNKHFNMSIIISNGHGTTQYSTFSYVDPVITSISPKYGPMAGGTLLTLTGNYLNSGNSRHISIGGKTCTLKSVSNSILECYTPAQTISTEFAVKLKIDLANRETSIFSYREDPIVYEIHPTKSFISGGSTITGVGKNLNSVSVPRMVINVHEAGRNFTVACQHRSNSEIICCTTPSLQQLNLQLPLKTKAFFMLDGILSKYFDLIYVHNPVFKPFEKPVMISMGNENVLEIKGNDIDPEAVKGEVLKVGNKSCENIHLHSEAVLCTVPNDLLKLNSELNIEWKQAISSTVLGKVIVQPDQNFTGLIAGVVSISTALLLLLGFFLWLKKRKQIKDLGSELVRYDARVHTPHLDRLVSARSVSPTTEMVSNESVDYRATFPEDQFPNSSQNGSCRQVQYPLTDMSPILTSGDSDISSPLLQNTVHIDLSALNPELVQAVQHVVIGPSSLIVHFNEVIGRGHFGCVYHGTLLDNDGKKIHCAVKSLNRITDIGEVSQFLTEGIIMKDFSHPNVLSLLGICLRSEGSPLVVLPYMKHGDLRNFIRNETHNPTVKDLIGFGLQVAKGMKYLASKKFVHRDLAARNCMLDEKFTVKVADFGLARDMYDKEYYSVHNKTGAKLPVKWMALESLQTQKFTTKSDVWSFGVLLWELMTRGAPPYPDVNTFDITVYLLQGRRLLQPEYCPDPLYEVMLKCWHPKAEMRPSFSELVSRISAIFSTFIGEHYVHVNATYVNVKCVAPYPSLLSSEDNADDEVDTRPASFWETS

Consider `C=CCn1cc(C(=O)Nc2ccc(Oc3ccnc4cc(OC)c5c(c34)OCCO5)c(F)c2)c(=O)n(-c2ccc(F)cc2)c1=O` [Example 100, N-(3-fluoro-4-((5-methoxy-2,3-dihydro-[1,4]dioxino[2,3-f]quinolin-10-yl)oxy)phenyl)-3-(4-fluorophenyl)-1-allyl-2,4-dioxo-1,2,3,4-tetrahydropyrimidine-5-carboxamide], for which the IC50 at c-MET kinase and against MER kinase was no more than 50 nM throughout.

Take `O=C(Nc1ccc(Oc2ccnc3ccc4c(c23)OCCO4)cc1F)c1cccn(-c2ccc(F)cc2)c1=O` [Example 170, N-(4-((2,3-dihydro-[1,4]dioxino[2,3-f]quinolin-10-yl)oxy)-2-fluorophenyl)-1-(4-fluorophenyl)-2-oxo-1,2-dihydropyridine-3-carboxamide]: the IC50 at c-MET kinase was 50 to 500 nM; at MER kinase it was no more than 50 nM.

Take `COCCOc1cc2nccc(Oc3ccc(NC(=O)c4cn(C)c(=O)n(-c5ccc(F)cc5)c4=O)cc3)c2c2c1OCCO2` [Example 147, N-(4-((5-(2-methoxyethoxy)-2,3-dihydro-[1,4]dioxino[2,3-f]quinolin-10-yl)oxy)phenyl)-3-(4-fluorophenyl)-1-methyl-2,4-dioxo-1,2,3,4-tetrahydropyrimidine-5-carboxamide]: the values for the IC50 on c-MET kinase and in the assay with Ba/F3 LMNA-NTRK1 cells were no more than 50 nM and less than 50 nM, respectively.

`CCn1cc(C(=O)Nc2ccc(Oc3ccnc4cc(OC)c5c(c34)OCCO5)cc2)c(=O)n(-c2ccc(F)cc2)c1=O` [Example 146, N-(4-((5-methoxy-2,3-dihydro-[1,4]dioxino[2,3-f]quinolin-10-yl)oxy)phenyl)-3-(4-fluorophenyl)-1-ethyl-2,4-dioxo-1,2,3,4-tetrahydropyrimidine-5-carboxamide]: the IC50 at c-MET kinase was no more than 50 nM; with Ba/F3 LMNA-NTRK1 cells, less than 50 nM.

As to `COCCOc1cc2nccc(Oc3ccc(NC(=O)c4cn(C)c(=O)n(-c5ccc(F)cc5)c4=O)c(F)c3)c2c2c1OCCO2` [Example 155, N-(2-fluoro-4-((5-(2-methoxyethoxy)-2,3-dihydro-[1,4]dioxino[2,3-f]quinolin-10-yl)oxy)phenyl)-3-(4-fluorophenyl)-1-methyl-2,4-dioxo-1,2,3,4-tetrahydropyrimidine-5-carboxamide], the IC50 at c-MET kinase is no more than 50 nM; in the assay on Ba/F3 LMNA-NTRK1 cells, less than 50 nM.

With `CCOc1ccn(-c2ccc(F)cc2)c(=O)c1C(=O)Nc1ccc(Oc2ccnc3ccc4c(c23)OCCO4)cc1F` [Example 171, N-(4-((2,3-dihydro-[1,4]dioxino[2,3-f]quinolin-10-yl)oxy)-2-fluorophenyl)-1-(4-fluorophenyl)-4-ethoxy-2-oxo-1,2-dihydropyridine-3-carboxamide], the IC50 at c-MET kinase and against MER kinase was no more than 50 nM throughout.

`CCn1cc(C(=O)Nc2ccc(Oc3ccnc4cc(OCC(C)(C)O)c5c(c34)OCCO5)cc2)c(=O)n(-c2ccc(F)cc2)c1=O` [Example 150, N-(4-((5-(2-hydroxy-2-methylpropoxy)-2,3-dihydro-[1,4]dioxino[2,3-f]quinolin-10-yl)oxy)phenyl)-3-(4-fluorophenyl)-1-ethyl-2,4-dioxo-1,2,3,4-tetrahydropyrimidine-5-carboxamide]: the IC50 on c-MET kinase was no more than 50 nM; with Ba/F3 LMNA-NTRK1 cells, less than 50 nM.

As to `CCOc1ccn(-c2cccc(F)c2)c(=O)c1C(=O)Nc1ccc(Oc2ccnc3cc(OC)c4c(c23)OCCO4)c(F)c1` [Example 114, N-(3-fluoro-4-((5-methoxy-2,3-dihydro-[1,4]dioxino[2,3-f]quinolin-10-yl)oxy)phenyl)-2-oxo-4-ethoxy-1-(3-fluorophenyl)-1,2-dihydropyridin-3-carboxamide], the IC50 at c-MET kinase and on MER kinase was no more than 50 nM in each case.

Turning to `CCn1cc(C(=O)Nc2ccc(Oc3ccnc4cc(OCCOC)c5c(c34)OCCO5)cc2F)c(=O)n(-c2ccc(F)cc2)c1=O` [Example 156, N-(2-fluoro-4-((5-(2-methoxyethoxy)-2,3-dihydro-[1,4]dioxino[2,3-f]quinolin-10-yl)oxy)phenyl)-3-(4-fluorophenyl)-1-ethyl-2,4-dioxo-1,2,3,4-tetrahydropyrimidine-5-carboxamide], the figures for the IC50 at c-MET kinase and with Ba/F3 LMNA-NTRK1 cells were no more than 50 nM and less than 50 nM, respectively.

Regarding `CCn1cc(C(=O)Nc2cc(F)c(Oc3ccnc4cc(OCCOC)c5c(c34)OCCO5)cc2C)c(=O)n(-c2ccc(F)cc2)c1=O` [Example 180, N-(5-fluoro-4-((5-(2-methoxyethoxy)-2,3-dihydro-[1,4]dioxino[2,3-f]quinolin-10-yl)oxy)-2-methylphenyl)-3-(4-fluorophenyl)-1-ethyl-2,4-dioxo-1,2,3,4-tetrahydropyrimidine-5-carboxamide], the IC50 is no more than 50 nM on c-MET kinase and less than 50 nM in the assay with Ba/F3 LMNA-NTRK1 cells.

Turning to `COc1ccn(-c2ccc(F)cc2)c(=O)c1C(=O)Nc1ccc(Oc2ncnc3cc(OCCCN4CCOCC4)c4c(c23)OCCO4)c(F)c1` [Example 5, N-(3-fluoro-4-((5-(3-morpholinopropoxy)-2,3-dihydro-[1,4]dioxino[2,3-f]quinazolin-10-yl)oxy)phenyl)-1-(4-fluorophenyl)-4-methoxy-2-oxo-1,2-dihydropyridine-3-carboxamide], the IC50 at c-MET kinase and at MER kinase was no more than 50 nM each time.

With `CCn1cc(C(=O)Nc2ccc(Oc3ccnc4cc(OCCOC)c5c(c34)OCCO5)cc2)c(=O)n(-c2ccc(F)cc2)c1=O` [Example 148, N-(4-((5-(2-methoxyethoxy)-2,3-dihydro-[1,4]dioxino[2,3-f]quinolin-10-yl)oxy)phenyl)-3-(4-fluorophenyl)-1-ethyl-2,4-dioxo-1,2,3,4-tetrahydropyrimidine-5-carboxamide], the IC50 on c-MET kinase is no more than 50 nM; in the assay with Ba/F3 LMNA-NTRK1 cells, less than 50 nM.

Consider `CCOc1ccn(Cc2ccccc2)c(=O)c1C(=O)Nc1ccc(Oc2ccnc3cc(OC)c4c(c23)OCCO4)c(F)c1` [Example 117, N-(3-fluoro-4-((5-methoxy-2,3-dihydro-[1,4]dioxino[2,3-f]quinolin-10-yl)oxy)phenyl)-2-oxo-4-ethoxy-1-benzyl-1,2-dihydropyridin-3-carboxamide], for which the IC50 on c-MET kinase and at MER kinase was no more than 50 nM each time.

Turning to `Cn1cc(C(=O)Nc2ccc(Oc3ccnc4cc(OCC(C)(C)O)c5c(c34)OCCO5)c(F)c2)c(=O)n(-c2ccc(F)cc2)c1=O` [Example 121, N-(3-fluoro-4-((5-(2-hydroxy-2-methylpropoxy)-2,3-dihydro-[1,4]dioxino[2,3-f]quinolin-10-yl)oxy)phenyl)-3-(4-fluorophenyl)-1-methyl-2,4-dioxo-1,2,3,4-tetrahydropyrimidine-5-carboxamide], the IC50 is 50 to 500 nM at c-MET kinase and no more than 50 nM against MER kinase.

With `O=C(Nc1ccc(Oc2ccnc3ccc4c(c23)OCCO4)c(F)c1)c1cccn(-c2ccc(F)cc2)c1=O` [Example 169, N-(4-((2,3-dihydro-[1,4]dioxino[2,3-f]quinolin-10-yl)oxy)-3-fluorophenyl)-1-(4-fluorophenyl)-2-oxo-1,2-dihydropyridine-3-carboxamide], the IC50 at c-MET kinase and against MER kinase was no more than 50 nM each time.

As for `COc1cc2nccc(Oc3ccc(NC(=O)c4cn(CCF)c(=O)n(-c5ccc(F)cc5)c4=O)cc3F)c2c2c1OCCO2` [Example 101, N-(3-fluoro-4-((5-methoxy-2,3-dihydro-[1,4]dioxino[2,3-f]quinolin-10-yl)oxy)phenyl)-3-(4-fluorophenyl)-1-(2-fluoroethyl)-2,4-dioxo-1,2,3,4-tetrahydropyrimidine-5-carboxamide], the IC50 on c-MET kinase and on MER kinase was no more than 50 nM in each case.

For the compound `CC(C)n1cc(C(=O)Nc2ccc(Oc3ccnc4cc(OCC5(N)CC5)c5c(c34)OCCO5)c(F)c2)c(=O)n(-c2ccc(F)cc2)c1=O` [Example 106, N-(3-fluoro-4-((5-((1-aminocyclopropyl)methoxy)-2,3-dihydro-[1,4]dioxino[2,3-f]quinolin-1 0-yl)oxy)phenyl)-3-(4-fluorophenyl)-1-isopropyl-2,4-dioxo-1,2,3,4-tetrahydropyrimidine-5-carboxamide], the IC50 at c-MET kinase is 50 to 500 nM; against MER kinase it was no more than 50 nM.

Take `COc1cc2nccc(Oc3ccc(NC(=O)c4cn(CCCO)c(=O)n(-c5ccc(F)cc5)c4=O)cc3F)c2c2c1OCCO2` [Example 99, N-(3-fluoro-4-((5-methoxy-2,3-dihydro-[1,4]dioxino[2,3-f]quinolin-10-yl)oxy)phenyl)-3-(4-fluorophenyl)-1-(3-hydroxypropyl)-2,4-dioxo-1,2,3,4-tetrahydropyrimidine-5-carboxamide]: the IC50 at c-MET kinase and against MER kinase was no more than 50 nM throughout.

For `O=C(Nc1ccc(Oc2ncnc3cc(OCCCN4CCOCC4)c4c(c23)OCCO4)c(F)c1)c1cccn(-c2ccc(F)cc2)c1=O` [Example 4, N-(3-fluoro-4-((5-(3-morpholinopropoxy)-2,3-dihydro-[1,4]dioxino[2,3-f]quinazolin-10-yl)oxy)phenyl)-1-(4-fluorophenyl)-2-oxo-1,2-dihydropyridine-3-carboxamide], the IC50 at c-MET kinase and against MER kinase was no more than 50 nM in each case.

In the case of `COc1ccn(-c2ccc(F)cc2)c(=O)c1C(=O)Nc1ccc(Oc2ccnc3ccc4c(c23)OCCO4)cc1F` [Example 172, N-(4-((2,3-dihydro-[1,4]dioxino[2,3-f]quinolin-10-yl)oxy)-2-fluorophenyl)-1-(4-fluorophenyl)-4-methoxy-2-oxo-1,2-dihydropyridine-3-carboxamide], the IC50 on c-MET kinase was 50 to 500 nM; against MER kinase, no more than 50 nM.
